Measured values taken from patent publication US9938562B2, “Naphthalene derived chromogenic enzyme substrates” (Glycosynth Limited, priority 2013, dated 2018).
Where two headings read alike, the source gives them in different places.

How the values were obtained:
[1] = test system: β-D-glucuronidase-positive strains; assay: Hydrolysis by glucuronidase-positive strains; type: cell-based
[2] = test system: clinical isolates of E. coli; assay: Glucuronide sensitivity screen, agar plates (CPS ID 3 or Columbia agar); type: cell-based
[3] = test system: E. cloacae; assay: Glucuronide screen, agar plates (CPS ID 3 or Columbia agar); type: cell-based
[4] = test system: E. faecium NCTC 7171; assay: as above; type: cell-based; details: E. faecium NCTC 7171, agar
[5] = test system: E. faecalis NCTC 775; assay: as above; type: cell-based; details: E. faecalis NCTC 775, agar
[6] = test system: Escherichia coli NCTC 10418; assay: Agar plate multi-point inoculation, colour; type: cell-based
[7] = test system: Klebsiella pneumoniae NCTC 9528; assay: Agar plate multi-point inoculation, colour; type: cell-based
[8] = test system: Providencia rettgeri NCTC 7475; assay: Agar plate multi-point inoculation, colour; type: cell-based
[9] = test system: Enterobacter cloacae NCTC 11936; assay: Agar plate multi-point inoculation, colour; type: cell-based
[10] = test system: Serratia marcescens NCTC 10211; assay: Agar plate multi-point inoculation, colour; type: cell-based
[11] = test system: Salmonella typhimurium NCTC 74; assay: Agar plate multi-point inoculation, colour; type: cell-based
[12] = test system: Pseudomonas aeruginosa NCTC 10662; assay: Agar plate multi-point inoculation, colour; type: cell-based
[13] = test system: Yersinia enterocolitica NCTC 11176; assay: Agar plate multi-point inoculation, colour; type: cell-based; details: Columbia agar, FAC 500 mg/L, substrate 300 mg/L, 37° C. 18 h in air
[14] = test system: Burkholderia cepacia NCTC 10931; assay: Agar plate multi-point inoculation, colour; type: cell-based; details: Columbia agar, FAC 500 mg/L, substrate 300 mg/L, 37° C. 18 h in air
[15] = test system: Acinetobacter baumannii NCTC 19606; assay: Agar plate multi-point inoculation, colour; type: cell-based
[16] = test system: Steptococcus pyogenes NCTC 8306; assay: Agar plate multi-point inoculation, colour; type: cell-based
[17] = test system: Staphylococcus aureus (MRSA) NCTC 11939; assay: Agar plate multi-point inoculation, colour; type: cell-based; details: Columbia agar, FAC 500 mg/L, substrate 300 mg/L, 37° C. 18 h in air
[18] = test system: Staphylococcus aureus NCTC 6571; assay: Agar plate multi-point inoculation, colour; type: cell-based
[19] = test system: Staphylococcus epidermidis NCTC 11047; assay: Agar plate multi-point inoculation, colour; type: cell-based
[20] = test system: Listeria monocytogenes NCTC 11994; assay: Agar plate multi-point inoculation, colour; type: cell-based
[21] = test system: Enterococcus faecium NCTC 7171; assay: Agar plate multi-point inoculation, colour; type: cell-based
[22] = test system: Enterococcus faecalis NCTC 775; assay: Agar plate multi-point inoculation, colour; type: cell-based
[23] = test system: Bacillus subtilis NCTC 9372; assay: Agar plate multi-point inoculation, colour; type: cell-based
[24] = test system: Candida albicans ATCC 90028; type: cell-based
[25] = test system: Candida glabrata NCPF 3943; assay: Agar plate multi-point inoculation, colour; type: cell-based
[26] = test system: range of microorganisms; assay: Agar plate evaluation with a range of microorganisms (hue, diffusion, background); type: cell-based; details: agar plates with FAC
[27] = 100 E. coli strains, agar, 18 h incubation

Compound: COC(=O)C1OC(Oc2cc3ccccc3cc2O)C(O)C(O)C1O [Compound 13, DHN-β-D-glucuronide-6′-methyl ester]
- colour after hydrolysis compared with 12a or 12b [1]: weaker

Compound: NC1CCCCC1.O=C(O)[C@H]1O[C@@H](Oc2c[nH]c3ccc(Br)c(Cl)c23)[C@H](O)[C@@H](O)[C@@H]1O [X-β-D-glucuronide CHA salt]
- % Sensitivity [2]: 79%
- Colour [2]: −
- Negative strains [2, 27]: 21
- Positive strains [2, 27]: 79
- Colour ([2]; E. coli 260262P, agar): Green
- Colour ([2]; E. coli 260280Z, agar): Green
- Colour ([2]; E. coli 260310H, agar): Green
- Colour ([2]; E. coli 260313A, agar): −
- Colour ([2]; E. coli 260316T, agar): −
- Colour ([2]; E. coli 260327V, agar): Green
- Colour ([2]; E. coli 260330Y, agar): Green
- Colour ([2]; E. coli 260333P, agar): −
- Colour ([2]; E. coli 260345F, agar): Green
- Colour ([2]; E. coli 260348K, agar): Green
- Colour ([2]; E. coli 260354W, agar): Green
- Colour ([2]; E. coli 260364H, agar): −
- Colour ([2]; E. coli 260370C, agar): Green
- Colour ([2]; E. coli 260375E, agar): Green
- Colour ([2]; E. coli 260390B, agar): −
- Colour ([2]; E. coli 260396Z, agar): Green
- Colour ([2]; E. coli 260398Q, agar): Green
- Colour ([2]; E. coli 260399E, agar): Green
- Colour ([2]; E. coli 260400N, agar): −
- Colour ([2]; E. coli 260401Q, agar): Green
- Colour ([2]; E. coli 260402H, agar): Green
- Colour ([2]; E. coli 260404W, agar): Green
- Colour ([2]; E. coli 260405P, agar): Green
- Colour ([2]; E. coli 260406A, agar): −
- Colour ([2]; E. coli 260406Y, agar): Green
- Colour ([2]; E. coli 260407F, agar): Green
- Colour ([2]; E. coli 260408C, agar): Green
- Colour ([2]; E. coli 260411Z, agar): Green
- Colour ([2]; E. coli 260412Q, agar): Green
- Colour ([2]; E. coli 260414H, agar): Green
- Colour ([2]; E. coli 260415Y, agar): Green
- Colour ([2]; E. coli 260416W, agar): −
- Colour ([2]; E. coli 260417P, agar): Green
- Colour ([2]; E. coli 260422Y, agar): Green
- Colour ([2]; E. coli 260424P, agar): Green
- Colour ([2]; E. coli 260425A, agar): Green
- Colour ([2]; E. coli 260426F, agar): Green
- Colour ([2]; E. coli 260428T, agar): Green
- Colour ([2]; E. coli 260431N, agar): Green
- Colour ([2]; E. coli 260432E, agar): Green
- Colour ([2]; E. coli 260433H, agar): Green
- Colour ([2]; E. coli 260434Y, agar): Green
- Colour ([2]; E. coli 260435W, agar): Green
- Colour ([2]; E. coli 260436P, agar): Green
- Colour ([2]; E. coli 260437A, agar): −
- Colour ([2]; E. coli 260438F, agar): Green
- Colour ([2]; E. coli 260439C, agar): Green
- Colour ([2]; E. coli 260440S, agar): Green
- Colour ([2]; E. coli 260441G, agar): Green
- Colour ([2]; E. coli 260458Y, agar): Green
- Colour ([2]; E. coli 260459W, agar): Green
- Colour ([2]; E. coli 260463D, agar): Green
- Colour ([2]; E. coli 260464G, agar): Green
- Colour ([2]; E. coli 260471B, agar): −
- Colour ([2]; E. coli 260478N, agar): −
- Colour ([2]; E. coli 260479Q, agar): Green
- Colour ([2]; E. coli 260480M, agar): Green
- Colour ([2]; E. coli 260481J, agar): Green
- Colour ([2]; E. coli 260483R, agar): −
- Colour ([2]; E. coli 260485D, agar): Green
- Colour ([2]; E. coli 260486L, agar): Green
- Colour ([2]; E. coli 260492J, agar): Green
- Colour ([2]; E. coli 260494B, agar): Green
- Colour ([2]; E. coli 260495R, agar): −
- Colour ([2]; E. coli 260497D, agar): Green
- Colour ([2]; E. coli 260502G, agar): Green
- Colour ([2]; E. coli 260503Z, agar): Green
- Colour ([2]; E. coli 260504N, agar): Green
- Colour ([2]; E. coli 260505Q, agar): −
- Colour ([2]; E. coli 260506E, agar): Green
- Colour ([2]; E. coli 260508Y, agar): Green
- Colour ([2]; E. coli 260509W, agar): Green
- Colour ([2]; E. coli 260510R, agar): Green
- Colour ([2]; E. coli 260511X, agar): Green
- Colour ([2]; E. coli 260514G, agar): −
- Colour ([2]; E. coli 260515Z, agar): −
- Colour ([2]; E. coli 260521S, agar): Green
- Colour ([2]; E. coli 260522Z, agar): Green
- Colour ([2]; E. coli 260532S, agar): Green
- Colour ([2]; E. coli 260533G, agar): Green
- Colour ([2]; E. coli 260536Q, agar): Green
- Colour ([2]; E. coli 260537E, agar): −
- Colour ([2]; E. coli 260538H, agar): −
- Colour ([2]; E. coli 260539Y, agar): Green
- Colour ([2]; E. coli 260541R, agar): Green
- Colour ([2]; E. coli 260545G, agar): Green
- Colour ([2]; E. coli 260547N, agar): Green
- Colour ([2]; E. coli 260548Q, agar): Green
- Colour ([2]; E. coli 260549E, agar): Green
- Colour ([2]; E. coli 260553X, agar): −
- Colour ([2]; E. coli 260554D, agar): Green
- Colour ([2]; E. coli 260555L, agar): Green
- Colour ([2]; E. coli 260563B, agar): Green
- Colour ([2]; E. coli 260564R, agar): Green
- Colour ([2]; E. coli 260578D, agar): −
- Colour ([2]; E. coli 2603121P, agar): −
- Colour ([3]; E. cloacae 260329R, agar): −
- Colour ([3]; E. cloacae NCTC 11936, agar): −
- Colour [4]: −
- Colour [5]: −

Compound: DHN-6-sulfonic acid-β-D-galactopyranoside sodium salt [Compound 31]
- Colour [6]: +
- Colour [7]: −
- Colour [8]: +
- Colour [9]: +
- Colour [10]: −
- Colour [11]: −
- Colour [12]: −
- Colour [13]: −
- Colour [14]: −
- Colour [15]: −
- Colour [16]: −
- Colour [17]: −
- Colour [18]: −
- Colour [19]: −
- Colour [20]: −
- Colour [21]: −
- Colour [22]: −
- Colour [23]: −
- Colour [24]: −
- Colour [25]: −
- colour (hue) after hydrolysis [26]: purple to maroon colonies
- amount dissolved in water: 30 mg
